# Experimental data from US20250084097A1, “MACROCYCLIC AMIDE COMPOUNDS AND APPLICATION THEREOF” (Medshine Discovery Inc., priority 2021, published 2025).
# Read-outs that look alike come from different tables or passages of the source.
# What was measured:
# Experiment in all cases: Cell proliferation inhibition, CellTiter-Glo
# Type in all cases: cell-based
# [1] = biological target: Ba/F3-FL-EGFR (L858R/T790M) (Homo sapiens, UniProt P00533, T790M/L858R, cells depend on it)
# Protocol: (§1) AdenosineTri-Phosphate (ATP) is an energy carrier shared by various life activities in nature, and is the smallest unit of energy storage and transfer. The CellTiter-Glo™ living cell assay kit uses luciferase as a detector, and luciferase requires the participation of ATP in the process of luminescence. CellTiter-Glo™ reagent is added to a cell culture medium, and the luminescence value is measured. The light signal is directly proportional to the amount of ATP in the system, and ATP is positively correlated with the number of living cells. Therefore, cell proliferation can be detected by detecting ATP content with the CellTiter-Glo kit. In this assay, the cell lines were Ba/F3-FL-EGFR (L858R/T790M/C797S), Ba/F3-FL-EGFR (WT), Ba/F3-FL-EGFR (L858R), Ba/F3-FL-EGFR (del19-S752-I759), Ba/F3-FL-EGFR (del19-E746-A750/T790M/C797S), Ba/F3-FL-EGFR (L858R/T790M), Ba/F3-FL-EGFR (del19-E746-A750/T790M), Ba/F3-TEL-EGFR (L858R/C797S), Ba/F3-FL-EGFR (del19-E746-A750/C797S) stably transfected cell lines.
# (§2) The cell lines were cultured in an incubator at 37° C. and 5% CO2. The cells were periodically passaged, and cells in logarithmic growth phase were taken for plating.
# (§3) a) DMSO was used to prepare a 10 mM solution of the compound to be tested, and then the compound to be tested was diluted to 0.3 or 1 mM with DMSO.
# (§4) b) Preparation of 1000× compound storage plate (tube): DMSO was used to dilute by 3-fold gradient from the highest concentration to the lowest concentration, with a total of 9 concentrations.
# (§5) c) Preparation of 20× compound working solution: 49 μL of cell culture medium was added to a flat-bottomed 96-well transparent drug plate, and 1 μL of compound was pipetted from the 1000× compound storage plate to the cell culture medium of the 96-well transparent drug plate. 1 μL of DMSO was added to the vehicle control. After adding compound or DMSO, the well content was mixed to uniform by aspiration and expelling with pipette.
# (§6) a) Cells were stained with trypan blue and viable cells were counted. The cell viability rate was required to be above 90%.
# (§7) b) 95 μL of cell suspension (2000 cells/well) was added to each well of the compound detection cell plate, and culture medium without cells (containing 0.1% DMSO) was added to the Min control well.
# (§8) c) Dosing in the compound detection cell plate: 5 μL of 20× compound working solution was added to the cell culture plate. 5 μL of DMSO-cell culture mixture was added to the Max control. The final concentration of DMSO was 0.1%.
# (§9) d) The culture plate was incubated in an incubator at 37° C., 5% CO2 for 72 hours.
# (§10) The following steps were performed according to the instruction of Promega CellTiter-Glo luminescence cell viability detection kit (Promega-G7573). • a) The CellTiter-Glo buffer was thawed and allowed to stand to reach room temperature; • b) CellTiter-Glo substrate was allowed to stand to reach room temperature; • c) CellTiter-Glo buffer was added to CellTiter-Glo substrate in a bottle to dissolve the substrate to formulate CellTiter-Glo working solution; • d) The working solution was vortexed slowly for fully dissolution; • e) The cell culture plates were taken out and allowed to stand for 10 minutes to equilibrate to room temperature; • f) 50 μL (equal to half the volume of cell culture solution in each well) of Cell Titer-Glo working solution was added into each well. • g) The culture plates were shaken on an orbital shaker for 2 minutes to induce cell lysis; • h) The culture plates were left at room temperature for 10 minutes to stabilize the luminescence signal; • i) The luminous signal was detected on the PerkinElmer EnVision®2105 plate reader.
# (§11) By PerkinElmer EnVision®2105 reading, the corresponding […] value RLU for each well was yielded.
# (§12) Cell proliferation inhibition rate (Inhibition Rate) data were processed using the following formula:
# (§13) Inhibition Rate (Inh %)=100−(RLUDrug−RLUMin)/(RLUMax−RLUMin)*100%. […]
# Ba/F3-FL-EGFR (WT) = Ba/F3-FL-EGFR (WT) (Homo sapiens, UniProt P00533)
# Protocol: as §1, §2, §3, §4, §5, §6, §7, §8, §9, §10, §11, §12, §13
# [2] = biological target: Ba/F3-FL-EGFR (del19-S752-I759) (Homo sapiens, UniProt P00533, DEL752-759, cells depend on it); conditions: 72 hours, read-out: Cell half-maximal inhibition concentration IC50 Ba/F3-FL-EGFR (del19-S752-I759)
# Protocol: as §1, §2, §3, §4, §5, §6, §7, §8, §9, §10, §11, §12, §13
# Ba/F3-FL-EGFR (L858R) = Ba/F3-FL-EGFR (L858R) (Homo sapiens, UniProt P00533, L858R, cells depend on it); conditions: 72 hours, read-out: Cell half-maximal inhibition concentration IC50 Ba/F3-FL-EGFR (L858R)
# Protocol: as §1, §2, §3, §4, §5, §6, §7, §8, §9, §10, §11, §12, §13
# [3] = biological target: T1, Ba/F3-TEL-EGFR (L858R/C797S) (Homo sapiens, UniProt P00533, C797S/L858R, cells depend on it)
# T1 construct: fused on or other part: TEL (ETV6) N-terminal oligomerising part fused to the EGFR kinase part; P41212 (Transcription factor ETV6)
# Protocol: as §1, §2, §3, §4, §5, §6, §7, §8, §9, §10, §11, §12, §13
# [4] = biological target: Ba/F3-FL-EGFR (del19-E746-A750/T790M) (Homo sapiens, UniProt P00533, DEL746-750/T790M, cells depend on it)
# Protocol: as §1, §2, §3, §4, §5, §6, §7, §8, §9, §10, §11, §12, §13
# [5] = biological target: Ba/F3-FL-EGFR (del19-E746-A750/T790M/C797S) (Homo sapiens, UniProt P00533, DEL746-750/T790M/C797S, cells depend on it); conditions: 72 hours, read-out: Cell half-maximal inhibition concentration IC50 Ba/F3-FL-EGFR (del19-E746-A750/T790M/C797S)
# Protocol: as §1, §2, §3, §4, §5, §6, §7, §8, §9, §10, §11, §12, §13
# [6] = 72 hours, read-out: Cell half-maximal inhibition concentration IC50 Ba/F3-FL-EGFR (L858R/T790M)
# [7] = 72 hours, read-out: Cell half-maximal inhibition concentration IC50 Ba/F3-FL-EGFR (WT)
# [8] = 72 hours, read-out: Cell half-maximal inhibition concentration IC50 Ba/F3-TEL-EGFR (L858R/C797S)
# [9] = 72 hours, read-out: Cell half-maximal inhibition concentration IC50 Ba/F3-FL-EGFR (del19-E746-A750/T790M)
# Ba/F3-FL-EGFR (L858R), sequence (P00533 whole entry L858R): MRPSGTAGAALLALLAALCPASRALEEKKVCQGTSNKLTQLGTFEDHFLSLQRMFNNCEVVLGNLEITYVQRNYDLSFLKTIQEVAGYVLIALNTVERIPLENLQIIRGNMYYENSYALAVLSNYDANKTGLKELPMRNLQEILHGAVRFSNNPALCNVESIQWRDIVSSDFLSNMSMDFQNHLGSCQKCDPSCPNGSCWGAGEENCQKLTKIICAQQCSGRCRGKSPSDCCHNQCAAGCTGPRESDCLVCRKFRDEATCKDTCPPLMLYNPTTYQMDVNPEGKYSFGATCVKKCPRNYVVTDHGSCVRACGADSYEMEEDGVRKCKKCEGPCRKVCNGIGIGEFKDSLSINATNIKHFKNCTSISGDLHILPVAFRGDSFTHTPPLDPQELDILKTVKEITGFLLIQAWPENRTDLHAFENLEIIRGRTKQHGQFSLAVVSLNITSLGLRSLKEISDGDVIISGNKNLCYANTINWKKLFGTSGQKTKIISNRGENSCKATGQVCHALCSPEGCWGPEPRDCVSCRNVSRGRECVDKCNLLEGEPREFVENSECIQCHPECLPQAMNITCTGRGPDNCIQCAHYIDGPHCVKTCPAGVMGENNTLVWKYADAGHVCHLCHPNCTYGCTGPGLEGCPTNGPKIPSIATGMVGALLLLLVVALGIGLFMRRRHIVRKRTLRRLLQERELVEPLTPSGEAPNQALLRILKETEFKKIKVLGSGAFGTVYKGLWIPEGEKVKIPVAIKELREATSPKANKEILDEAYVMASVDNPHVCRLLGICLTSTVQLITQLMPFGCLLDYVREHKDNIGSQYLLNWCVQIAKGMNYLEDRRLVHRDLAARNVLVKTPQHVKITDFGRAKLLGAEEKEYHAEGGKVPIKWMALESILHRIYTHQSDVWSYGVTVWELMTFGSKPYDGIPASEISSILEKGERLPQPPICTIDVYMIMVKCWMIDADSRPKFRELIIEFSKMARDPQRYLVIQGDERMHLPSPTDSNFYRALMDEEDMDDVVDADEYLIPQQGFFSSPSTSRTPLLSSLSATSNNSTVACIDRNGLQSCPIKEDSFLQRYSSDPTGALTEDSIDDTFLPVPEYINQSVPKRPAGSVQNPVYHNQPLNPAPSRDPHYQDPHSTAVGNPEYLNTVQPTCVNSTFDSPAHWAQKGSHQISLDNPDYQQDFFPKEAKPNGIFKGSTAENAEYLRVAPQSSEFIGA
# Ba/F3-FL-EGFR (del19-S752-I759), sequence (P00533 with tags, fused parts or gaps DEL752-759): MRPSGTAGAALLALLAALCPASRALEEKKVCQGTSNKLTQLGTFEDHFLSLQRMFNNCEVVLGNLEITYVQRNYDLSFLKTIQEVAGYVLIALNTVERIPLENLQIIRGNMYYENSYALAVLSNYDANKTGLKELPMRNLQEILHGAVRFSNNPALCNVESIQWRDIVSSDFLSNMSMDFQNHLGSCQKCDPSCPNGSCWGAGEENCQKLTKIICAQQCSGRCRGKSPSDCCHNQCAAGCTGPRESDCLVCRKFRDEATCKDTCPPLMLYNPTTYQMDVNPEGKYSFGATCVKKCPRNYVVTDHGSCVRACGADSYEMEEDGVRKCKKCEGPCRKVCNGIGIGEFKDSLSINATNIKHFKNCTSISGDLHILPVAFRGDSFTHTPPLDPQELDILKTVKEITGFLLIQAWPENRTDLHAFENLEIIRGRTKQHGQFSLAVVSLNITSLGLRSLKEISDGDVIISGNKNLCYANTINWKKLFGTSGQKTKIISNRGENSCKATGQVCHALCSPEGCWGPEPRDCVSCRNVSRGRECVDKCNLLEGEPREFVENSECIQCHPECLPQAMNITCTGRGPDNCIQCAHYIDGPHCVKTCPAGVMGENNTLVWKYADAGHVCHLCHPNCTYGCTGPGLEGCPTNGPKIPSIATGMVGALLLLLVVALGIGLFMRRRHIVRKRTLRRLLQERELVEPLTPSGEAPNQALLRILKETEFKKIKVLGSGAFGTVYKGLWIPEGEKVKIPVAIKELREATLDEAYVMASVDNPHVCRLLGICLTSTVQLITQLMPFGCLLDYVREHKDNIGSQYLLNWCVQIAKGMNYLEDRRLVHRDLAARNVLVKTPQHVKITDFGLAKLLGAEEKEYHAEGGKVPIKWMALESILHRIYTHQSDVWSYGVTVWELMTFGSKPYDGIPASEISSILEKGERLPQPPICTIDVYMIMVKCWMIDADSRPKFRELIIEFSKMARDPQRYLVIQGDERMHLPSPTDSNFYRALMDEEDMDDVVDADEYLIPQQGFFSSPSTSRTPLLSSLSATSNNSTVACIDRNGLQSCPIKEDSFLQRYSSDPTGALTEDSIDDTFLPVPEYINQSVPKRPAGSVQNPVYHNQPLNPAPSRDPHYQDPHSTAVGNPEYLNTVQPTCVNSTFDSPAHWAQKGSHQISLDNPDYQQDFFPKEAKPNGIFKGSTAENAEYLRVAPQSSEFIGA
# T1 sequence (P00533 whole entry C797S/L858R, the tested form may be a part): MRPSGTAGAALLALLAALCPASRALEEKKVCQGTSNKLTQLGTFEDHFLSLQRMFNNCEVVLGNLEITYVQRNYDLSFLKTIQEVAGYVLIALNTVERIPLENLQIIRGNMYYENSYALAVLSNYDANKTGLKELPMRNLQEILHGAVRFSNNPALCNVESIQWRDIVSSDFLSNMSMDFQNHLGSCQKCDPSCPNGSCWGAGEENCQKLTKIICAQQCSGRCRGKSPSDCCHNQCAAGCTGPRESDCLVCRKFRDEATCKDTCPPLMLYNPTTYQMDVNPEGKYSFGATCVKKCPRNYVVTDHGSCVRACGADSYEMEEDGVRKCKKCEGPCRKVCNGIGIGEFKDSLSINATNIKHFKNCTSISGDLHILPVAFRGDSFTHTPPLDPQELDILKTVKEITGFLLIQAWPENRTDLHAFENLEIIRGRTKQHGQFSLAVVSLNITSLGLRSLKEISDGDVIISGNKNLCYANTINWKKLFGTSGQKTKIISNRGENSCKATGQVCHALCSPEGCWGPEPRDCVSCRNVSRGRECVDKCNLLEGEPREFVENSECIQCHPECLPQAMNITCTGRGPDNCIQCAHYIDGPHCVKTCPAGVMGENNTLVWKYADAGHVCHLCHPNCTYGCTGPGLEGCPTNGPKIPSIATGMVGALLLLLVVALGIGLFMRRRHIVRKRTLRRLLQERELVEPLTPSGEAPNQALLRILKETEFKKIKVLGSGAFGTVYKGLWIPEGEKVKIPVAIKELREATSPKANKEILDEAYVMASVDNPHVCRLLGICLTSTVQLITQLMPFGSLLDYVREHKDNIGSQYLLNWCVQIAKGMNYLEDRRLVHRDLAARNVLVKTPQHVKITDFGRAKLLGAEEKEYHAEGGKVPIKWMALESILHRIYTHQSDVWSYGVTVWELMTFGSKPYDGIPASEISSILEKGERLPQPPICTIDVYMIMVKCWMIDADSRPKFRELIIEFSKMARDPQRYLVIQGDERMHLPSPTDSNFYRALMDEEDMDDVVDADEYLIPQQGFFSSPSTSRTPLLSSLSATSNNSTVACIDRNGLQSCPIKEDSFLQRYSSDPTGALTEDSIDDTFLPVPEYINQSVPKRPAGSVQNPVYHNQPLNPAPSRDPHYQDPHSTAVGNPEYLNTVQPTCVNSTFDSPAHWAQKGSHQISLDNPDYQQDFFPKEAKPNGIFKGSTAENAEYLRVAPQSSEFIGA
# Ba/F3-FL-EGFR (del19-E746-A750/T790M/C797S), sequence (P00533 with tags, fused parts or gaps DEL746-750/T790M/C797S): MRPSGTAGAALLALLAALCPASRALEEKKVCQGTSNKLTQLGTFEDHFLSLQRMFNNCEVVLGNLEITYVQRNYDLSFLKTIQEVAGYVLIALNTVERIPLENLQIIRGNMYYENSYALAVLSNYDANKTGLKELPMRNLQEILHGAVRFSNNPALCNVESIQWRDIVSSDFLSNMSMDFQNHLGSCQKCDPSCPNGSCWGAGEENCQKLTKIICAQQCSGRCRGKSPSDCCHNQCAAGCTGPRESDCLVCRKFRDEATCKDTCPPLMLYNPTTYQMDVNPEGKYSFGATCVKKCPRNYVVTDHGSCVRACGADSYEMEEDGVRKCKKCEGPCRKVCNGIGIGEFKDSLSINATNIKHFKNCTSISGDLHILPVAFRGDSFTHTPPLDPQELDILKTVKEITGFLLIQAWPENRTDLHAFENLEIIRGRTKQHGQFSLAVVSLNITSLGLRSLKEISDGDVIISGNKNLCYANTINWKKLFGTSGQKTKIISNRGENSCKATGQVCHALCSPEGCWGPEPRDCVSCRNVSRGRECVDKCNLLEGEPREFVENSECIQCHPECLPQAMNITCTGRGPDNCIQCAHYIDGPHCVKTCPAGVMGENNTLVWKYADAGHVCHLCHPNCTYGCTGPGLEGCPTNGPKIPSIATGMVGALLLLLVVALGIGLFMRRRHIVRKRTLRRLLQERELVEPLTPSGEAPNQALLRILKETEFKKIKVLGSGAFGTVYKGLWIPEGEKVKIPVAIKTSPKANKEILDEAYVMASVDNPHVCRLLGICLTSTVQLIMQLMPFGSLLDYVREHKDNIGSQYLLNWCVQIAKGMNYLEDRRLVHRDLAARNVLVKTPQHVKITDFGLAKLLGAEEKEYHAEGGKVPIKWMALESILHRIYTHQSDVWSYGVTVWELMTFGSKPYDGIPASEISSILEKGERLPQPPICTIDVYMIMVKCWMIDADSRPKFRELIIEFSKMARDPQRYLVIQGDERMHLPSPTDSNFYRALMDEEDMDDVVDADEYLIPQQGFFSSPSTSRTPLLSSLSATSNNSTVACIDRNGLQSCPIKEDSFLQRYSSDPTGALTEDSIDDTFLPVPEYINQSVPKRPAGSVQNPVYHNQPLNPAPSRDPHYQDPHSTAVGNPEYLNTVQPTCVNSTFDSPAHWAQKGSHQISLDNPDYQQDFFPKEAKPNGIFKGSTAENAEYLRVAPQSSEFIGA
SMILES,"GI50 [1, 6] [nM]",GI50 (Ba/F3-FL-EGFR (WT); [7]) [nM],GI50 [2] [nM],GI50 (Ba/F3-FL-EGFR (L858R)) [nM],"GI50 [3, 8] [nM]","GI50 [4, 9] [nM]",GI50 [5] [nM],"GI50 ([1]; read-out: Cell half-maximal inhibition concentration IC50 Ba/F3-FL-EGFR (L858R/T790M), 72 hours) [nM]","GI50 (Ba/F3-FL-EGFR (WT); read-out: Cell half-maximal inhibition concentration IC50 Ba/F3-FL-EGFR (WT), 72 hours) [nM]","GI50 ([3]; read-out: Cell half-maximal inhibition concentration IC50 Ba/F3-TEL-EGFR (L858R/C797S), 72 hours) [nM]","GI50 ([4]; read-out: Cell half-maximal inhibition concentration IC50 Ba/F3-FL-EGFR (del19-E746-A750/T790M), 72 hours) [nM]"
"Cc1cc2cc(n1)-c1cnn(C)c1OC[C@H]1CC[C@H](C1)CN1/C(=N/C2=O)Nc2ccc(N=S(C)(C)=O)cc21 (single isomer, unassigned) [WX-027A]",14.3,295,12.9,39.6,5.2,1.9,1.2,–,–,–,–
Cc1cc2cc(n1)-c1cnn(C)c1OCCC[C@@H](C)CN1/C(=N/C2=O)Nc2ccc(N=S(C)(C)=O)cc21 [WX-006],12.9,111,15.4,18.6,3.1,0.8,0.6,–,–,–,–
Cc1cc2cc(n1)-c1cnn(C)c1OCCC[C@@H](C)CN1/C(=N/C2=O)Nc2ccc(N=S3(=O)CCCC3)cc21 [WX-010 (trifluoroacetate)],10.5,86,11.2,14,3,0.4,0.8,–,–,–,–
Cc1cc2cc(n1)-c1cnn(C)c1OCCC[C@@H](C)CN1/C(=N/C2=O)Nc2ccc(N=S3(=O)CCOCC3)cc21 [WX-013],–,–,–,–,–,–,–,12.1,123,3.1,0.6
Cc1cc2cc(n1)-c1cnn(C)c1OCCC[C@@H](C)CN1/C(=N/C2=O)Nc2ccc(N=S(C)(C)=O)c(Cl)c21 [WX-019],16.8,303,15.6,42.2,7.3,2.9,1.3,–,–,–,–
